The text below walks through data of publication PMC9664868, “Dephospho-Coenzyme A Kinase Is an Exploitable Drug Target against Plasmodium falciparum: Identification of Selective Inhibitors by High-Throughput Screening of a Large Chemical Compound Library” (Antimicrobial Agents and Chemotherapy, 2022).

Read-outs that look alike come from different tables or passages of the source. A value given as a limit tells only on which side of the number the result lay.

Assay [1] has as its target PfDPCK (Plasmodium falciparum, UniProt Q8IL34). In words: PfDPCK inhibition, enzyme-coupled fluorescence ADP detection assay (HTS and IC50 determination). In kind it is biochemical. The method, then: High-throughput screening against recombinant PfDPCK was performed using the Drug Discovery Initiative (DDI) full library, available from The University of Tokyo, composed of approximately 210,000 compounds. The primary assay was performed on 1,536-well white plate format with a final volume of 2 μL/well, containing 10 μM test compounds using a Multidrop Combi reagent dispenser (Thermo Fisher Scientific, Waltham, MA). The reaction was conducted in the assay buffer described above with 100 μM ATP and 50 μM dephospho-CoA. The assay was carried out at room temperature for 4 h in a closed plastic container with wet tissues. The reaction was stopped, and produced ADP was quantified using an enzyme-coupled fluorescence ADP detection assay, using PHERAstar microplate reader (BMG Labtech, Offenburg, Germany) with excitation at 540 nm and emission at 590 nm, as previously described ([17]). The inhibition level was calculated as the percentage inhibition of DPCK activity with each compound compared to the activity with only dimethyl sulfoxide (DMSO) as control (no inhibition) and that with no enzyme as 100% inhibition. IC50 values of the hit compounds were determined under the same assay conditions for the screening: Z′ factor, signal-to-background ratio (S/B), signal-to-noise ratio (S/N), and coefficient of variation (CV) were calculated to estimate the quality of screening system as previously described ([18], [38]).
The primary hits were reassayed in quadruplicate (n = 4) as in the primary screening. We next tested the confirmed secondary hits to exclude false positives that inhibit coupled fluorescence assay, but not PfDPCK. After exclusion of false positives, all tertiary hits were tested against human HsCOASY in the counterassay to exclude compounds that inhibit both PfDPCK and HsCOASY. The compounds showing >10% inhibition against HsCOASY were excluded from further studies. The IC50 values of the hit compounds were determined under the same assay conditions described as above for the primary screening, with the serially diluted compounds at 20, 10, 2.5, 0.5, and 0.1 μM at final concentrations. The assay was conducted in quadruplicate for each dilution, and IC50 values were calculated using GraphPad Software (San Diego, California USA).

For assay [2], the system named is P. falciparum drug-sensitive 3D7 strain. In words: Erythrocytic-stage parasite growth inhibition, diaphorase-coupled LDH assay, 3D7. In kind it is cell-based, Plasmodium falciparum. The following applies: for IC50: Plasmodium falciparum, read-out: IC50 (μM) of: Pf cell 3D7; for Selectivity index IC50 (HepG2/3D7): HepG2 IC50 / 3D7 IC50. How it is done:
(§1) Selected hit compounds were also tested against erythrocytic-stage parasites of P. falciparum drug-sensitive 3D7 and drug-resistant Dd2 strains ([39]). For the phenotypic assay, parasite cultures were synchronized with 5% (wt/vol) D-sorbitol as previously described ([40]). A synchronized culture containing ring-stage parasites of 0.3% parasitemia was initiated with a culture volume of 25 μL/well on a 384-well plate. A series of diluted compounds (at final concentrations of 50, 10, 2, 0.4, and 0.08 μM) were used to calculate IC50 values. Mefloquine at 50 μM and atovaquone at 20 μM were used as no-growth control (100% inhibition). After 72 h of incubation, parasite growth was measured by diaphorase-coupled lactate dehydrogenase (LDH) assay as previously described ([41]). Absorbance at 650 nm was measured using SpectraMax Paradigm multimode microplate reader (Molecular Devices, San Jose, CA, USA). The IC50 values were calculated as described above.

The test system of assay [3] is P. falciparum drug-resistant Dd2 strain. The assay is described as follows: Erythrocytic-stage parasite growth inhibition, diaphorase-coupled LDH assay, Dd2. Format: cell-based, Plasmodium falciparum. The following applies: for IC50: Plasmodium falciparum, read-out: IC50 (μM) of: Pf cell Dd2. How it is done:
as §1

The test system of assay [4] is HepG2 cell line. The assay is described as follows: Cytotoxicity assay (Cell Counting Kit-8). In kind it is cell-based, human. The conditions noted are these: Homo sapiens. The method, then: Cytotoxicity against human cells was evaluated using the human liver carcinoma HepG2 cell line. HepG2 cells were cultured in D-MED supplemented with 4 mM L-glutamine and 10% fetal bovine serum (FBS) in a 75-cm^2 flask (Violamo) at 37°C. For the cytotoxicity assay, HepG2 cells in semiconfluent state were detached from the flask by incubating the cells with 5 mL D-MEM containing 0.25% trypsin-EDTA. After detachment, HepG2 cells were resuspended in D-MEM-supplemented L-glutamine and FBS, and cell viability was evaluated by incubating cells with 0.4% Trypan blue on a hemocytometer. An approximately 50-μL suspension containing 3,000 cells was dispensed into each well on a 384-well clear-bottom plate using a Multidrop Combi dispenser. Compounds dissolved in DMSO had been dispensed into wells to yield final concentrations of 100, 20, 4, 0.8, and 0.2 μM before cells were added. After cells were added to the plates, they were cultured at 37°C under 5% CO2. After 48 h cultivation, 5 μL of Cell Counting Kit-8 (Dojindo, Japan) was added, and the plates were further incubated for 2 h to assess cell growth and survival.

Where [5] appears, read: recombinant enzyme, means ± SEMs, read-out: IC50 (μM) of: PfDPCK.
[6] abbreviates: drug-sensitive 3D7, 72 h, means ± SEMs.
Where [7] appears, read: drug-resistant Dd2, 72 h, means ± SEMs.
Setting [8] is: HepG2, ND (maximum concentration tested 100 μM), read-out: IC50 (μM) of: HepG2.
Setting [9] is: HepG2, 48 h, means ± SEMs, read-out: IC50 (μM) of: HepG2.

Chain of PfDPCK (Q8IL34 entry or part of it): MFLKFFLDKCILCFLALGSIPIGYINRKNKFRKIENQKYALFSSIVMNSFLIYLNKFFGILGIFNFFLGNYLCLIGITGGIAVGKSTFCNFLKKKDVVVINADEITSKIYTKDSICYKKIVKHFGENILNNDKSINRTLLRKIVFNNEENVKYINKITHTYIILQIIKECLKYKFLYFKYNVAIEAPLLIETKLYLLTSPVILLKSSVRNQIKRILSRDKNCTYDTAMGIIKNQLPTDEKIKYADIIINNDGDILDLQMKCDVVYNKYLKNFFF

Take `O=C(O)C1NC(c2ccncc2)C23c4c5c6c7c8c9c(c%10c%11c2c2c4c4c%12c5c5c6c6c8c8c%13c9c9c%10c%10c%11c%11c2c2c4c4c%12c%12c5c5c6c8c6c8c%13c9c9c%10c%10c%11c2c2c4c4c%12c5c6c5c8c9c%10c2c45)C713` (stereo not shown) [Compound A-45]: the IC50 is 6.68 ± 0.24 µM in assay [1]; 15.6 ± 0.61 µM in assay [2] (3D7, 72 h); 1.29 ± 0.02 µM in assay [3] (DD2, 72 h); more than 100 µM in assay [4] (HepG2, read-out: IC50 (μM) of: HepG2).
Regarding `COC(C(=O)N/N=C/c1ccccc1)c1ccccc1` (stereo not shown) [Compound A-50], the IC50 in assay [1] (setting [5]) was 6.99 ± 0.13 µM; in assay [2] (setting [6]), more than 50 µM; in assay [3] (setting [7]), 6.62 ± 1.12 µM; in assay [4] (setting [8]) it was more than 100 µM.
For the compound `Cc1cn2c(/C=C3\C(=O)N(C)c4ccccc43)c(C)nc2s1` [Compound A-51], the IC50 is 7.05 ± 0.08 µM in assay [1] (setting [5]), 15.76 ± 0.12 µM in assay [2] (setting [6]), 0.62 ± 0.23 µM in assay [3] (setting [7]) and more than 100 µM in assay [4] (setting [9]). For the same compound, in assay [2], the “Selectivity index IC50 (HepG2/3D7)” value is on record as more than 6.3. Further, the “Selectivity index IC50 (HepG2/Dd2)” value in assay [3] is on record as more than 166.6.
In the case of `O=C1NC(=O)/C(=C/c2ccc(C(=O)Nc3ccc(O)cc3C(=O)O)cc2)S1` [Compound A-60], the IC50 in assay [1] (setting [5]) is 8.35 ± 0.05 µM; in assay [2] (setting [6]), 34.14 ± 0.04 µM; in assay [3] (setting [7]), 5.53 ± 0.95 µM; in assay [4] (setting [8]) it was more than 100 µM.
Consider `O=Cc1cc(C23CC4CC(CC(C4)C2)C3)cc([N+](=O)[O-])c1O` [Compound A-63], for which the IC50 is 8.69 ± 0.01 µM in assay [1] (setting [5]), 6.04 ± 0.05 µM in assay [2] (setting [6]), 0.7 ± 0.22 µM in assay [3] (setting [7]) and more than 100 µM in assay [4] (setting [9]). In assay [2], the “Selectivity index IC50 (HepG2/3D7)” value is more than 16.6. The “Selectivity index IC50 (HepG2/Dd2)” value in assay [3] is reported as more than 142.8.
Take `S=C(NCCc1ccccc1)NNc1nc2ccccc2[nH]1` [Compound A-65]: the IC50 in assay [1] (setting [5]) was 9.21 ± 0.12 µM; in assay [2] (setting [6]), 4.4 ± 0.05 µM; in assay [3] (setting [7]), 0.36 ± 0.1 µM; in assay [4] (setting [8]), more than 100 µM.

The term IC50 denotes the concentration needed to halve the response being measured.
